# Source: ChEMBL document CHEMBL1130076, “Synthesis and in vitro evaluation of two progressive series of bifunctional polyhydroxybenzamide catechol-O-methyltransferase inhibitors” (J Med Chem, 1997)
# T1: Catechol O-methyltransferase (Sus scrofa, UniProt Q99028)
# T1 sequence (Q99028 whole entry): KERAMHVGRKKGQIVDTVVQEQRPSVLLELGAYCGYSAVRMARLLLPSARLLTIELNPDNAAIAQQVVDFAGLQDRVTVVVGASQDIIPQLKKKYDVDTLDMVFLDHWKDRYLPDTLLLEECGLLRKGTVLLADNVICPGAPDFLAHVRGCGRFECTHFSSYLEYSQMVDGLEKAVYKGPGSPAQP
# B1: Catechol O-methyltransferase (Sus scrofa), Q99028 (protein)
# chain: T1 sequence (Q99028 whole entry)
# Assays:
# [1] = molecular target: T1, Catechol O-methyltransferase; test: In vitro inhibitory activity against Catechol-O-methyltransferase from porcine liver; Competitive mode of inhibition
# [2] = molecular target: T1, Catechol O-methyltransferase; test: In vitro inhibitory activity against Catechol-O-methyltransferase from porcine liver; Uncompetitive mode of inhibition
# [3] = compound: COC(=O)c1cc(O)c(O)c(O)c1; test: (§1) In vitro inhibitory activity against Catechol-O-methyltransferase from porcine liver; details: Sus scrofa
# [4] = compound: C[S+](CC[C@H](N)C(=O)[O-])C[C@H]1O[C@@H](n2cnc3c(N)ncnc32)[C@H](O)[C@@H]1O; test: as §1; details: Sus scrofa
# [5] = compound: CCCNC(=O)c1ccc(O)c(O)c1; test: (§2) In vitro inhibitory activity against Catechol-O-methyltransferase from porcine liver; No inhibitory action; details: Sus scrofa
# [6] = compound: O=C(NCCNC(=O)c1ccc(O)c(O)c1)c1ccc(O)c(O)c1; test: as §2; details: Sus scrofa
# [7] = compound: O=C(NCCCCCNC(=O)c1ccc(O)c(O)c1)c1ccc(O)c(O)c1; test: as §2; details: Sus scrofa
# [8] = compound: O=C(NCCCCCCNC(=O)c1ccc(O)c(O)c1)c1ccc(O)c(O)c1; test: as §2; details: Sus scrofa
molecule,measurement,setting,value
CCCNC(=O)c1cc(O)c(O)c(O)c1,Ki,[1],0.5 µM
O=C(NCCNC(=O)c1cc(O)c(O)c(O)c1)c1cc(O)c(O)c(O)c1,Ki,[2],136 µM
O=C(NCCCNC(=O)c1cc(O)c(O)c(O)c1)c1cc(O)c(O)c(O)c1,Ki,[2],6.6 µM
O=C(NCCCCCCNC(=O)c1cc(O)c(O)c(O)c1)c1cc(O)c(O)c(O)c1,Ki,[2],35 µM
O=C(NCCCNC(=O)c1ccc(O)c(O)c1)c1ccc(O)c(O)c1,Ki,[1],0.3 µM
O=C(NCCCCCNC(=O)c1cc(O)c(O)c(O)c1)c1cc(O)c(O)c(O)c1,Ki,[2],26.7 µM
B1,Km,[3],25.5 µM
same,Km,[4],44.6 µM
same,COMT inhibitory activity,[5],No inhibitory action
same,COMT inhibitory activity,[6],No inhibitory action
same,COMT inhibitory activity,[7],No inhibitory action
same,COMT inhibitory activity,[8],No inhibitory action
